Measured values reported in patent US20250129430A1, “HIGH ATP-AFFINITY PROTEIN AS THERAPEUTIC TARGET FOR INTRACTABLE CANCER MOLECULAR SUBTYPES AND INHIBITOR THEREOF” (VeraVerse Co., Ltd., priority 2021, published 2025).

Legend:
Assay in all cases: Cell viability drug screen, 12-point dose-response AUC
Assay type in all cases: cell-based, human
AGS = AGS cells; 72 hours; 12-point dose-response
Summary of the method: (§1)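 AUC comes from 12-point half-log dose–response curves, normalized to DMSO-treated cells and integrated trapezoidally, repeats averaged. Luminescent viability read after 72 h compound exposure at 37 °C; cells plated 5×10^3 per well 24 h before dosing.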

Hs746T = Hs746T cells; 72 hours; 12-point dose-response
Summary of the method: (§2)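 Viability: luminescence (Glo kit, 15 min RT), normalized to 0.5% DMSO vehicle. Dosing: half-log, 12 concentrations, 72 h. Cells: 5×10^3/well, treated 24 h after plating. Value: trapezoidal AUC, mean of repeats.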

KATO3 = KATO3 cells; 72 hours; 12-point dose-response
Summary of the method: as §2

MKN1 = MKN1 cells; 72 hours; 12-point dose-response
Summary of the method: as §2

MKN28 = MKN28 cells; 72 hours; 12-point dose-response
Summary of the method: as §2

MKN45 = MKN45 cells; 72 hours; 12-point dose-response
Summary of the method: as §1

MKN74 = MKN74 cells; 72 hours; 12-point dose-response
Summary of the method: as §1

NCC19 = NCC19 cells; 72 hours; 12-point dose-response
Summary of the method: as §2

NCC20 = NCC20 cells; 72 hours; 12-point dose-response
Summary of the method: as §2

NCC24 = NCC24 cells; 72 hours; 12-point dose-response
Summary of the method: as §2

NCC59 = NCC59 cells; 72 hours; 12-point dose-response
Summary of the method: as §2

NCI_N87 = NCI_N87 cells; 72 hours; 12-point dose-response
Summary of the method: as §2

OCUM1 = OCUM1 cells; 72 hours; 12-point dose-response
Summary of the method: as §2

SK4 = SK4 cells; 72 hours; 12-point dose-response
Summary of the method: as §2

SNU16 = SNU16 cells; 72 hours; 12-point dose-response
Summary of the method: as §2

SNU1750 = SNU1750 cells; 72 hours; 12-point dose-response
Summary of the method: as §2

SNU1967 = SNU1967 cells; 72 hours; 12-point dose-response
Summary of the method: as §2

SNU1 = SNU1 cells; 72 hours; 12-point dose-response
Summary of the method: as §2

SNU216 = SNU216 cells; 72 hours; 12-point dose-response
Summary of the method: as §1

SNU484 = SNU484 cells; 72 hours; 12-point dose-response
Summary of the method: as §2

SNU601 = SNU601 cells; 72 hours; 12-point dose-response
Summary of the method: as §2

SNU620 = SNU620 cells; 72 hours; 12-point dose-response
Summary of the method: as §2

SNU638 = SNU638 cells; 72 hours; 12-point dose-response
Summary of the method: as §2

SNU668 = SNU668 cells; 72 hours; 12-point dose-response
Summary of the method: as §2

SNU719 = SNU719 cells; 72 hours; 12-point dose-response
Summary of the method: as §1

YCC11 = YCC11 cells; 72 hours; 12-point dose-response
Summary of the method: as §2

YCC2 = YCC2 cells; 72 hours; 12-point dose-response
Summary of the method: as §2

YCC3 = YCC3 cells; 72 hours; 12-point dose-response
Summary of the method: as §2

FU97 = FU97 cells; 72 hours; 12-point dose-response
Summary of the method: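 Trapezoidal AUC of a 12-point, DMSO-normalized dose-response curve. Luminescent viability was measured after 72 h of exposure at 37° C to half-log serial dilutions (0.5% DMSO control), dosed 24 h after plating FU97 cells at 5×10^3 per well.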

| SMILES | area under the viability curve (AUC), normalized (AGS) | area under the viability curve (AUC), normalized (Hs746T) | area under the viability curve (AUC), normalized (KATO3) | area under the viability curve (AUC), normalized (MKN1) | area under the viability curve (AUC), normalized (MKN28) | area under the viability curve (AUC), normalized (MKN45) | area under the viability curve (AUC), normalized (MKN74) | area under the viability curve (AUC), normalized (NCC19) | area under the viability curve (AUC), normalized (NCC20) | area under the viability curve (AUC), normalized (NCC24) | area under the viability curve (AUC), normalized (NCC59) | area under the viability curve (AUC), normalized (NCI_N87) | area under the viability curve (AUC), normalized (OCUM1) | area under the viability curve (AUC), normalized (SK4) | area under the viability curve (AUC), normalized (SNU16) | area under the viability curve (AUC), normalized (SNU1750) | area under the viability curve (AUC), normalized (SNU1967) | area under the viability curve (AUC), normalized (SNU1) | area under the viability curve (AUC), normalized (SNU216) | area under the viability curve (AUC), normalized (SNU484) | also measured |
| --- | --- | --- | --- | --- | --- | --- | --- | --- | --- | --- | --- | --- | --- | --- | --- | --- | --- | --- | --- | --- | --- |
| C/C(=C\c1csc(C)n1)[C@@H]1C[C@@H]2O[C@@H]2CCC[C@H](C)[C@H](O)[C@@H](C)C(=O)C(C)(C)[C@@H](O)CC(=O)O1 [Epothilone A] | −1.655 | 1.217 | 4.761 | −1.14 | −1.4393 | 0.6604 | 0.2913 | 0 | −0.5459 | −1.8431 | 3.583 | −1.51 | 1.699 | −0.9541 | −1.12 | 1.039 | 0.6477 | −1.75 | 2.403 | −0.4364 | area under the viability curve (AUC), normalized (SNU601): −0.2006; area under the viability curve (AUC), normalized (SNU620): −2.268; area under the viability curve (AUC), normalized (SNU638): 0.3118; area under the viability curve (AUC), normalized (SNU668): −0.2909; area under the viability curve (AUC), normalized (SNU719): 4.484; area under the viability curve (AUC), normalized (YCC11): −1.2702; area under the viability curve (AUC), normalized (YCC2): 0.1784; area under the viability curve (AUC), normalized (YCC3): 2.8742; area under the viability curve (AUC), normalized (FU97): 0.9454 |
| C#Cc1cccc(Nc2ncnc3cc(OC)c(OCCCCCCC(=O)NO)cc23)c1 [CUDC-101] | −0.9569 | 0.4609 | 0.683 | 0.6267 | −0.7663 | 1.5 | −0.5407 | 1.187 | −0.7885 | 0.1814 | 1.8155 | −0.4217 | 0.3332 | −0.04342 | 0.427 | −1.203 | −0.301 | 0 | −0.5746 | 0.5831 | area under the viability curve (AUC), normalized (SNU601): −0.1084; area under the viability curve (AUC), normalized (SNU620): −0.4289; area under the viability curve (AUC), normalized (SNU638): −0.8807; area under the viability curve (AUC), normalized (SNU668): 0.9508; area under the viability curve (AUC), normalized (SNU719): 0.9348; area under the viability curve (AUC), normalized (YCC11): 0.3451; area under the viability curve (AUC), normalized (YCC2): −0.1991; area under the viability curve (AUC), normalized (YCC3): 0.7562; area under the viability curve (AUC), normalized (FU97): −0.4688 |
